This is an account of results in US11261186B2, “Biaryl derivative as GPR120 agonist” (LG CHEM, LTD., priority 2014, dated 2022).

As usually defined, the EC50 is the concentration that produces a half-maximal response.

Structures are written as SMILES. A value given as a limit tells only on which side of the number the result lay.

The target in this assay is T1, hGPR120 (Homo sapiens, UniProt Q5NUL3).
T1 construct: expressed in transfected cells; host or cells: CHO-K1
T1 sequence (Q5NUL3 1-361): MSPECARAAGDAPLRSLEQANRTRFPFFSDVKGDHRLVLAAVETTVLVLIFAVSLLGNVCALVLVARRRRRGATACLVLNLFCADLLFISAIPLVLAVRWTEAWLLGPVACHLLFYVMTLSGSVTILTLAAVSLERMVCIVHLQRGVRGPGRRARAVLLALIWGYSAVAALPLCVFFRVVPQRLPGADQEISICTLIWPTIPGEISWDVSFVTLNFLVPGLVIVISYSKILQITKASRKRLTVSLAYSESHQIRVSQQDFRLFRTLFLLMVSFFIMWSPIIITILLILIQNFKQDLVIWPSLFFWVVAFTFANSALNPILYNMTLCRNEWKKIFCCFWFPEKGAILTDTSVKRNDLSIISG
The experiment in a line: Measurement of Activity of GPR120 Agonist (Cell-Based Assay), Calcium 5 dye fluorescence. The note with it: CHO-K1 cells expressing Ga16 and hGPR120. The method, boiled down:
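CHO-K1 cells co-expressing Gα16 and hGPR120 were seeded, cultured 18 h at 37 °C, then loaded 1 h with Calcium 5 dye. Serially diluted agonists (final 0.5% DMSO) were added and fluorescence read at Ex 485/Em 525 nm, expressed as percent relative to 1% DMSO-only wells.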

On to `O=C(O)CCCOc1c(F)cc(-c2nccc(OC3CCC3)n2)cc1F` [Example 420, 4-[4-(4-cyclobutoxy-pyrimidin-2-yl)-2,6-difluoro-phenoxy]-butyric acid], for which the EC50 is below 0.2 µM.

Regarding `O=C(O)CCCOc1c(F)cc(-c2ccnc(OC3CCC3)n2)cc1F` [Example 421, 4-[4-(2-cyclobutoxy-pyrimidin-4-yl)-2,6-difluoro-phenoxy]-butyric acid], the EC50 is below 0.2 µM. In the case of `O=C(O)CCCOc1c(F)cc(-c2nccc(OC3CCC3)n2)cc1Cl` [Example 422, 4-[2-chloro-4-(4-cyclobutoxy-pyrimidin-2-yl)-6-fluoro-phenoxy]-butyric acid], the EC50 is below 0.2 µM. Consider `O=C(O)CCCOc1c(F)cc(-c2ccnc(OC3CCC3)n2)cc1Cl` [Example 423, 4-[2-chloro-4-(2-cyclobutoxy-pyrimidin-4-yl)-6-fluoro-phenoxy]-butyric acid], for which the EC50 is below 0.2 µM.

As for `O=C(O)CCCOc1c(F)cc(-c2cc(OC3CCC3)cc(Cl)n2)cc1Cl` [Example 424, 4-[2-chloro-4-(6-chloro-4-cyclobutoxy-pyridin-2-yl)-6-fluoro-phenoxy]-butyric acid], the EC50 was below 0.2 µM.

Take `Cc1cc(OC2CCC2)nc(-c2cc(F)c(OCCCC(=O)O)c(F)c2)n1` [Example 425, 4-[4-(4-cyclobutoxy-6-methyl-pyrimidin-2-yl)-2,6-difluoro-phenoxy]-butyric acid]: the EC50 was below 0.2 µM. In the case of `O=C(O)CCCOc1c(F)cc(-c2csc(OC3CCC3)n2)cc1Cl` [Example 426, 4-[2-chloro-4-(2-cyclobutoxy-thiazol-4-yl)-6-fluoro-phenoxy]-butyric acid], the concentration for a half-maximal effect (EC50) is below 0.2 µM. Regarding `O=C(O)CCCOc1c(F)cc(-c2csc(OCC3CC3)n2)cc1Cl` [Example 427, 4-[2-chloro-4-(2-cyclopropylmethoxy-thiazol-4-yl)-6-fluoro-phenoxy]-butyric acid], the EC50 was below 0.2 µM.

For the compound `O=C(O)CCCOc1c(F)cc(-c2nccc(OCC3CC3)n2)cc1Cl` [Example 428, 4-[2-chloro-4-(4-cyclopropylmethoxy-pyrimidin-2-yl)-6-fluoro-phenoxy]-butyric acid], the EC50 was below 0.2 µM.

For the compound `Cc1cc(OC2CCC2)nc(-c2cc(F)c(OCCCC(=O)O)c(Cl)c2)c1` [Example 429, 4-[2-chloro-4-(6-cyclobutoxy-4-methyl-pyridin-2-yl)-6-fluoro-phenoxy]-butyric acid], the 50% effective concentration (EC50) was below 0.2 µM. Turning to `O=C(O)CCCOc1c(F)cc(-c2cncc(OC3CCC3)n2)cc1Cl` [Example 430, 4-[2-chloro-4-(6-cyclobutoxy-pyrazin-2-yl)-6-fluoro-phenoxy]-butyric acid], the concentration giving a half-maximal response (EC50) was below 0.2 µM.

In the case of `O=C(O)CCCOc1c(F)cc(-c2cncc(OCC3CC3)n2)cc1Cl` [Example 431, 4-[2-chloro-4-(6-cyclopropylmethoxy-pyrazin-2-yl)-6-fluoro-phenoxy]-butyric acid], the 50% effective concentration (EC50) is below 0.2 µM. Consider `Cc1cc(OCC2CC2)nc(-c2cc(F)c(OCCCC(=O)O)c(F)c2)n1` [Example 432, 4-[4-(4-cyclopropylmethoxy-6-methyl-pyrimidin-2-yl)-2,6-difluoro-phenoxy]-butyric acid], for which the concentration giving a half-maximal response (EC50) was below 0.2 µM.

Take `O=C(O)CCCOc1c(F)cc(-c2nccc(OCC3CC3)n2)cc1F` [Example 433, 4-[4-(4-cyclopropylmethoxy-pyrimidin-2-yl)-2,6-difluoro-phenoxy]-butyric acid]: the EC50 is below 0.2 µM. Turning to `O=C(O)CCCOc1c(F)cc(-c2cncc(OCC3CC3)n2)cc1F` [Example 434, 4-[4-(6-cyclopropylmethoxy-pyrazin-2-yl)-2,6-difluoro-phenoxy]-butyric acid], the EC50 was below 0.2 µM. Regarding `Cc1cc(OCC2CC2)nc(-c2cc(F)c(OCCCC(=O)O)c(Cl)c2)c1` [Example 435, 4-[2-chloro-4-(6-cyclopropylmethoxy-4-methyl-pyridin-2-yl)-6-fluoro-phenoxy]-butyric acid], the EC50 was below 0.2 µM. Regarding `CC(C)Oc1cncc(-c2cc(F)c(OCCCC(=O)O)c(Cl)c2)n1` [Example 436, 4-[2-chloro-6-fluoro-4-(6-isopropoxy-pyrazin-2-yl)-phenoxy]-butyric acid], the concentration giving a half-maximal response (EC50) is below 0.2 µM. Take `CCOc1cncc(-c2cc(F)c(OCCCC(=O)O)c(Cl)c2)n1` [Example 437, 4-[2-chloro-4-(6-ethoxy-pyrazin-2-yl)-6-fluoro-phenoxy]-butyric acid]: the EC50 is below 0.2 µM. For the compound `O=C(O)C[C@H]1CCN(c2c(F)cc(-c3cccc(OCC4CC4)n3)cc2F)C1` [Example 438, {(R)-1-[4-(6-cyclopropylmethoxy-pyridin-2-yl)-2,6-difluoro-phenyl]-pyrrolidin-3-yl}-acetic acid], the EC50 is below 0.2 µM. Consider `O=C(O)CC1CCN(c2c(F)cc(-c3cccc4c3OC(F)(F)O4)cc2F)CC1` [Example 439, {1-[4-(2,2-difluoro-benzo[1,3]dioxol-4-yl)-2,6-difluoro-phenyl]-piperidin-4-yl}-acetic acid], for which the EC50 is 0.2 to 2 µM. To `CC(C)Sc1ncccc1-c1cc(F)c2c(c1)CCC(CCC(=O)O)S2` (centres unmarked) [Example 440, 3-[8-fluoro-6-(2-isopropylsulfanyl-3-pyridyl)thiochroman-2-yl]propanoic acid] belongs 0.2 to 2 µM; to `O=C(O)CCC1CCc2cc(-c3cccc(OC4CCC4)n3)ccc2S1` (centres unmarked) [Example 441, 3-[6-[6-(cyclobutoxy)-2-pyridyl]thiochroman-2-yl]propanoic acid], below 0.2 µM. Take `COc1ccc(-c2cc(F)c(C3CC3CCC(=O)O)c(F)c2)c2c1OC(C)(C)C2` (centres unmarked) [Example 442, 3-[2-[2,6-difluoro-4-(7-methoxy-2,2-dimethyl-3H-benzofuran-4-yl)phenyl]cyclopropyl]propanoic acid]: the EC50 lay in the range of 0.2 to 2 µM.

`O=C(O)CCC1CC1c1c(F)cc(-c2cccc3c2OC2(CCCC2)C3)cc1F` (centres unmarked) [Example 443, 3-[2-(2,6-difluoro-4-spiro[3H-benzofuran-2,1′-cyclopentan]-7-yl-phenyl)cyclopropyl]propanoic acid]: the EC50 is 0.2 to 2 µM.

Regarding `O=C(O)CCC1CCc2cc(-c3cccc(OC4CCC4)n3)ccc2O1` (centres unmarked) [Example 444, 3-[6-[6-(cyclobutoxy)-2-pyridyl]chroman-2-yl]propanoic acid], the EC50 was below 0.2 µM. Consider `O=C(O)CCC1CCc2cc(-c3cccc(OCC4CC4)n3)ccc2O1` (centres unmarked) [Example 445, 3-[6-[6-(cyclopropylmethoxy)-2-pyridyl]chroman-2-yl]propanoic acid], for which the EC50 is below 0.2 µM. As to `COc1cccc(-c2cc(F)c(OCCCC(=O)O)c(F)c2)c1OC` [Example 446, 4-[4-(2,3-dimethoxyphenyl)-2,6-difluoro-phenoxy]butanoic acid], the EC50 was 0.2 to 2 µM.

In the case of `O=C(O)CCC1CCc2cc(-c3cccc(OCC4CC4)c3)ccc2O1` (centres unmarked) [Example 447, 3-[6-[3-(cyclopropylmethoxy)phenyl]chroman-2-yl]propanoic acid], the EC50 was below 0.2 µM. Consider `O=C(O)CCC1CCc2cc(-c3cccc(OC4CCCC4)c3)ccc2O1` (centres unmarked) [Example 448, 3-[6-[3-(cyclopentoxy)phenyl]chroman-2-yl]propanoic acid], for which the EC50 is below 0.2 µM. As for `CN(CCCC(=O)O)c1c(F)cc(-c2cccc3c2OC2(CCCC2)O3)cc1F` [Example 449, 4-(2,6-difluoro-N-methyl-4-spiro[1,3-benzodioxol-2,1′-cyclopentan]-4-yl-anilino)butanoic acid], the 50% effective concentration (EC50) is below 0.2 µM.

Take `CC(CCCC(=O)O)c1c(F)cc(-c2cccc3c2OC2(CCCC2)O3)cc1F` (centres unmarked) [Example 450, 5-(2,6-difluoro-4-spiro[1,3-benzodioxol-2,1′-cyclopentan]-4-yl-phenyl)hexanoic acid]: the concentration for a half-maximal effect (EC50) is below 0.2 µM. As for `CC(C)(C)Sc1cccc(-c2ccc3c(c2)CCC(CCC(=O)O)O3)n1` (centres unmarked) [Example 451, 3-[6-(6-tert-butylsulfanyl-2-pyridyl)chroman-2-yl]propanoic acid], the figure is below 0.2 µM; as for `CC(C)Oc1cccc(-c2ccc3c(c2)CCC(CCC(=O)O)O3)n1` (centres unmarked) [Example 452, 3-[6-(6-isopropoxy-2-pyridyl)chroman-2-yl]propanoic acid], below 0.2 µM; as for `O=C(O)CC1CCN(c2c(F)cc(-c3cccc4c3OC3(CCCC3)O4)cc2F)CC1` [Example 453, 2-[1-(2,6-difluoro-4-spiro[1,3-benzodioxol-2,1′-cyclopentan]-4-yl-phenyl)-4-piperidyl]acetic acid], 0.2 to 2 µM. For `CCCOc1cccc(-c2cc(F)c(OCCCC(=O)O)c(F)c2)c1OCCC` [Example 454, 4-[4-(2,3-dipropoxyphenyl)-2,6-difluoro-phenoxy]butanoic acid], the EC50 is below 0.2 µM. For the compound `COc1ccc(-c2cc(F)c(OCCCC(=O)O)c(F)c2)nc1OC1CCC1` [Example 455, 4-[4-[6-(cyclobutoxy)-5-methoxy-2-pyridyl]-2,6-difluoro-phenoxy]butanoic acid], the half-maximal effective concentration (EC50) is below 0.2 µM. On to `COc1ccc(-c2cc(F)c(N(C)CCCC(=O)O)c(F)c2)nc1OC1CCC1` [Example 456, 4-[4-[6-(cyclobutoxy)-5-methoxy-2-pyridyl]-2,6-difluoro-N-methyl-anilino]butanoic acid], for which the 50% effective concentration (EC50) was below 0.2 µM. On to `COc1ccc(-c2cc(F)c(N3CCC(CC(=O)O)CC3)c(F)c2)nc1OC1CCC1` [Example 457, 2-[1-[4-[6-(cyclobutoxy)-5-methoxy-2-pyridyl]-2,6-difluoro-phenyl]-4-piperidyl]acetic acid], for which the concentration for a half-maximal effect (EC50) fell in the range of 0.2 to 2 µM.
